Tested on: B16 cells gene expression
Experiment: RNA-Seq (DEGs, GSEA, heatmaps) of B16 cells
Conditions: B16 cells, KTC 0.2μM

## COc1cc(N)cc2c1nc(C(F)F)n2-c1nc(N2CCCOCC2)nc(N2CCOCC2)n1 [KTC1101, 2-(difluoromethyl)-4-methoxy-1-(4-morpholino-6-(1,4-oxazepan-4-yl)-1,3,5-triazin-2-yl)-1H-benzo[d]imidazol-6-amine]
GSEA KEGG mmu01524
  NES: Platinum drug resistance: -1.706
  enrichmentScore: Platinum drug resistance: -0.4321
GSEA KEGG mmu03010
  NES: Ribosome: 2.0791
  enrichmentScore: Ribosome: 0.5599
GSEA KEGG mmu03013
  NES: Nucleocytoplasmic transport: -1.168
  enrichmentScore: Nucleocytoplasmic transport: -0.2706
GSEA KEGG mmu03030
  NES: DNA replication: -1.22
  enrichmentScore: DNA replication: -0.374
GSEA KEGG mmu03050
  NES: Proteasome: -1.869
  enrichmentScore: Proteasome: -0.5072
GSEA KEGG mmu03320
  NES: PPAR signaling pathway: -1.414
  enrichmentScore: PPAR signaling pathway: -0.3831
GSEA KEGG mmu03440
  NES: Homologous recombination: -1.259
  enrichmentScore: Homologous recombination: -0.3597
GSEA KEGG mmu04010
  NES: MAPK signaling pathway: 1.18
  enrichmentScore: MAPK signaling pathway: 0.3038
GSEA KEGG mmu04012
  NES: ErbB signaling pathway: 1.235
  enrichmentScore: ErbB signaling pathway: 0.3633
GSEA KEGG mmu04015
  NES: Rap1 signaling pathway: 1.294
  enrichmentScore: Rap1 signaling pathway: 0.3507
GSEA KEGG mmu04020
  NES: Calcium signaling pathway: 1.795
  enrichmentScore: Calcium signaling pathway: 0.4973
GSEA KEGG mmu04022
  NES: cGMP-PKG signaling pathway: 1.703
  enrichmentScore: cGMP-PKG signaling pathway: 0.4759
GSEA KEGG mmu04024
  NES: cAMP signaling pathway: 1.563
  enrichmentScore: cAMP signaling pathway: 0.4327
GSEA KEGG mmu04060
  NES: Cytokine-cytokine receptor interaction: 1.941
  enrichmentScore: Cytokine-cytokine receptor interaction: 0.59
GSEA KEGG mmu04061
  NES: Viral protein interaction with cytokine and cytokine receptor: 2.1
  enrichmentScore: Viral protein interaction with cytokine and cytokine receptor: 0.7876
GSEA KEGG mmu04062
  NES: Chemokine signaling pathway: 1.837
  enrichmentScore: Chemokine signaling pathway: 0.514
GSEA KEGG mmu04064
  NES: NF-kappa B signaling pathway: 1.257
  enrichmentScore: NF-kappa B signaling pathway: 0.3844
GSEA KEGG mmu04066
  NES: HIF-1 signaling pathway: -1.602
  enrichmentScore: HIF-1 signaling pathway: -0.3782
GSEA KEGG mmu04072
  NES: Phospholipase D signaling pathway: 1.435
  enrichmentScore: Phospholipase D signaling pathway: 0.4011
GSEA KEGG mmu04080
  NES: Neuroactive ligand-receptor interaction: 1.734
  enrichmentScore: Neuroactive ligand-receptor interaction: 0.5578
GSEA KEGG mmu04110
  NES: Cell cycle: -1.229
  enrichmentScore: Cell cycle: -0.265
GSEA KEGG mmu04114
  NES: Oocyte meiosis: -1.291
  enrichmentScore: Oocyte meiosis: -0.2991
GSEA KEGG mmu04141
  NES: Protein processing in endoplasmic reticulum: -1.222
  enrichmentScore: Protein processing in endoplasmic reticulum: -0.2637
GSEA KEGG mmu04142
  NES: Lysosome: -1.281
  enrichmentScore: Lysosome: -0.2917
GSEA KEGG mmu04145
  NES: Phagosome: -1.483
  enrichmentScore: Phagosome: -0.3503
GSEA KEGG mmu04151
  NES: PI3K-Akt signaling pathway: 1.456
  enrichmentScore: PI3K-Akt signaling pathway: 0.3693
GSEA KEGG mmu04218
  NES: Cellular senescence: 1.209
  enrichmentScore: Cellular senescence: 0.3231
GSEA KEGG mmu04260
  NES: Cardiac muscle contraction: 1.313
  enrichmentScore: Cardiac muscle contraction: 0.4187
GSEA KEGG mmu04261
  NES: Adrenergic signaling in cardiomyocytes: 1.264
  enrichmentScore: Adrenergic signaling in cardiomyocytes: 0.3566
GSEA KEGG mmu04310
  NES: Wnt signaling pathway: 1.195
  enrichmentScore: Wnt signaling pathway: 0.334
GSEA KEGG mmu04330
  NES: Notch signaling pathway: 1.378
  enrichmentScore: Notch signaling pathway: 0.4468
GSEA KEGG mmu04340
  NES: Hedgehog signaling pathway: -1.456
  enrichmentScore: Hedgehog signaling pathway: -0.4001
GSEA KEGG mmu04350
  NES: TGF-beta signaling pathway: 1.497
  enrichmentScore: TGF-beta signaling pathway: 0.4579
GSEA KEGG mmu04370
  NES: VEGF signaling pathway: -1.413
  enrichmentScore: VEGF signaling pathway: -0.3829
GSEA KEGG mmu04371
  NES: Apelin signaling pathway: 1.504
  enrichmentScore: Apelin signaling pathway: 0.4209
GSEA KEGG mmu04380
  NES: Osteoclast differentiation: 1.356
  enrichmentScore: Osteoclast differentiation: 0.3943
GSEA KEGG mmu04390
  NES: Hippo signaling pathway: 1.527
  enrichmentScore: Hippo signaling pathway: 0.4244
GSEA KEGG mmu04510
  NES: Focal adhesion: 1.45
  enrichmentScore: Focal adhesion: 0.3877
GSEA KEGG mmu04512
  NES: ECM-receptor interaction: 1.51
  enrichmentScore: ECM-receptor interaction: 0.4857
GSEA KEGG mmu04540
  NES: Gap junction: 1.307
  enrichmentScore: Gap junction: 0.3903
GSEA KEGG mmu04610
  NES: Complement and coagulation cascades: 1.788
  enrichmentScore: Complement and coagulation cascades: 0.6389
GSEA KEGG mmu04613
  NES: Neutrophil extracellular trap formation: 1.259
  enrichmentScore: Neutrophil extracellular trap formation: 0.3655
GSEA KEGG mmu04620
  NES: Toll-like receptor signaling pathway: 1.2254
  enrichmentScore: Toll-like receptor signaling pathway: 0.3682
GSEA KEGG mmu04621
  NES: NOD-like receptor signaling pathway: 1.434
  enrichmentScore: NOD-like receptor signaling pathway: 0.4008
GSEA KEGG mmu04625
  NES: C-type lectin receptor signaling pathway: 1.433
  enrichmentScore: C-type lectin receptor signaling pathway: 0.4281
GSEA KEGG mmu04630
  NES: JAK-STAT signaling pathway: 1.466
  enrichmentScore: JAK-STAT signaling pathway: 0.4286
GSEA KEGG mmu04640
  NES: Hematopoietic cell lineage: 1.336
  enrichmentScore: Hematopoietic cell lineage: 0.501
GSEA KEGG mmu04657
  NES: IL-17 signaling pathway: 1.494
  enrichmentScore: IL-17 signaling pathway: 0.4654
GSEA KEGG mmu04659
  NES: Th17 cell differentiation: 1.198
  enrichmentScore: Th17 cell differentiation: 0.3665
GSEA KEGG mmu04664
  NES: Fc epsilon RI signaling pathway: -1.329
  enrichmentScore: Fc epsilon RI signaling pathway: -0.3636
GSEA KEGG mmu04668
  NES: TNF signaling pathway: 1.66
  enrichmentScore: TNF signaling pathway: 0.4756
GSEA KEGG mmu04710
  NES: Circadian rhythm: -1.714
  enrichmentScore: Circadian rhythm: -0.5347
GSEA KEGG mmu04713
  NES: Circadian entrainment: 1.598
  enrichmentScore: Circadian entrainment: 0.4957
GSEA KEGG mmu04721
  NES: Synaptic vesicle cycle: -1.378
  enrichmentScore: Synaptic vesicle cycle: -0.3771
GSEA KEGG mmu04722
  NES: Neurotrophin signaling pathway: 1.347
  enrichmentScore: Neurotrophin signaling pathway: 0.3745
GSEA KEGG mmu04724
  NES: Glutamatergic synapse: 1.249
  enrichmentScore: Glutamatergic synapse: 0.3819
GSEA KEGG mmu04725
  NES: Cholinergic synapse: 1.403
  enrichmentScore: Cholinergic synapse: 0.4174
GSEA KEGG mmu04740
  NES: Olfactory transduction: 1.83
  enrichmentScore: Olfactory transduction: 0.66
GSEA KEGG mmu04742
  NES: Taste transduction: 1.885
  enrichmentScore: Taste transduction: 0.7021
GSEA KEGG mmu04810
  NES: Regulation of actin cytoskeleton: 1.182
  enrichmentScore: Regulation of actin cytoskeleton: 0.312
GSEA KEGG mmu04814
  NES: Motor proteins: -1.623
  enrichmentScore: Motor proteins: -0.3694
GSEA KEGG mmu04911
  NES: Insulin secretion: 1.364
  enrichmentScore: Insulin secretion: 0.4349
GSEA KEGG mmu04913
  NES: Ovarian steroidogenesis: 1.397
  enrichmentScore: Ovarian steroidogenesis: 0.499
GSEA KEGG mmu04914
  NES: Progesterone-mediated oocyte maturation: -1.352
  enrichmentScore: Progesterone-mediated oocyte maturation: -0.3392
GSEA KEGG mmu04918
  NES: Thyroid hormone synthesis: 1.21
  enrichmentScore: Thyroid hormone synthesis: 0.3822
GSEA KEGG mmu04919
  NES: Thyroid hormone signaling pathway: -1.193
  enrichmentScore: Thyroid hormone signaling pathway: -0.278
GSEA KEGG mmu04921
  NES: Oxytocin signaling pathway: 1.2549
  enrichmentScore: Oxytocin signaling pathway: 0.3525
GSEA KEGG mmu04922
  NES: Glucagon signaling pathway: -1.435
  enrichmentScore: Glucagon signaling pathway: -0.3522
GSEA KEGG mmu04923
  NES: Regulation of lipolysis in adipocytes: 1.37
  enrichmentScore: Regulation of lipolysis in adipocytes: 0.4649
GSEA KEGG mmu04924
  NES: Renin secretion: 1.644
  enrichmentScore: Renin secretion: 0.5567
GSEA KEGG mmu04925
  NES: Aldosterone synthesis and secretion: 1.273
  enrichmentScore: Aldosterone synthesis and secretion: 0.3803
GSEA KEGG mmu04926
  NES: Relaxin signaling pathway: 1.257
  enrichmentScore: Relaxin signaling pathway: 0.3545
GSEA KEGG mmu04927
  NES: Cortisol synthesis and secretion: 1.396
  enrichmentScore: Cortisol synthesis and secretion: 0.4573
GSEA KEGG mmu04928
  NES: Parathyroid hormone synthesis, secretion and action: 1.74
  enrichmentScore: Parathyroid hormone synthesis, secretion and action: 0.5119
GSEA KEGG mmu04931
  NES: Insulin resistance: -1.682
  enrichmentScore: Insulin resistance: -0.394
GSEA KEGG mmu04933
  NES: AGE-RAGE signaling pathway in diabetic complications: 1.385
  enrichmentScore: AGE-RAGE signaling pathway in diabetic complications: 0.4005
GSEA KEGG mmu04935
  NES: Growth hormone synthesis, secretion and action: 1.209
  enrichmentScore: Growth hormone synthesis, secretion and action: 0.3459
GSEA KEGG mmu04966
  NES: Collecting duct acid secretion: -1.6527
  enrichmentScore: Collecting duct acid secretion: -0.5648
GSEA KEGG mmu04971
  NES: Gastric acid secretion: 1.497
  enrichmentScore: Gastric acid secretion: 0.4728
GSEA KEGG mmu04973
  NES: Carbohydrate digestion and absorption: 1.258
  enrichmentScore: Carbohydrate digestion and absorption: 0.4436
GSEA KEGG mmu04974
  NES: Protein digestion and absorption: 1.8879
  enrichmentScore: Protein digestion and absorption: 0.6074

Reference: article PMC10938783, “A novel pan-PI3K inhibitor KTC1101 synergizes with anti-PD-1 therapy by targeting tumor suppression and immune activation” (Molecular Cancer, 2024)
